Reference: ChEMBL document CHEMBL4813951 (Eur J Med Chem, 2021)

What was measured:
Histamine H2 receptor [1] = target: Histamine H2 receptor (Homo sapiens, UniProt P25021); assay: Displacement of [3H]UR-DE257 from human histamine H2 receptor expressed in sf9 insect cell membranes co-expressing GSalphaS incubated for 60 mins by microbeta scintillation counting method; set-up: species or system Membrane
Histamine H2 receptor [2] = target: Histamine H2 receptor (Cavia porcellus, UniProt P47747); assay: Agonist activity at guinea pig right atrium histamine H2 receptor assessed as increase in heart rate incubated for 30 mins in presence of cimetidine; type: functional, tissue-based, Right cardiac atrium
Sequence of Histamine H2 receptor (Cavia porcellus, UniProt P47747) (P47747 whole entry): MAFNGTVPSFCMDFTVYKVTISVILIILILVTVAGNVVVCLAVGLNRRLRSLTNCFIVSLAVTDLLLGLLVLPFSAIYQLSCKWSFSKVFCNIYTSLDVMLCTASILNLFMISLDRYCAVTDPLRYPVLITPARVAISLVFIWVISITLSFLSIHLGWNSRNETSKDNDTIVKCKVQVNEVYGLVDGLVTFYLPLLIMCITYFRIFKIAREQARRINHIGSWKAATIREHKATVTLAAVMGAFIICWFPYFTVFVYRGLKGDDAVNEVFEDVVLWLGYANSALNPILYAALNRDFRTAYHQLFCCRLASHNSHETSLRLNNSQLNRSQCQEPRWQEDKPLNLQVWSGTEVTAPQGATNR

Histamine H3 receptor = Histamine H3 receptor (Homo sapiens, UniProt Q9Y5N1); assay: Displacement of [3H]UR-P129 from human histamine H3 receptor expressed in sf9 insect cell membranes co-expressing Galphai2/Gbeta1gamma2 incubated for 60 mins by microbeta scintillation counting method; set-up: species or system Membrane
Sequence of Histamine H3 receptor (Q9Y5N1 whole entry): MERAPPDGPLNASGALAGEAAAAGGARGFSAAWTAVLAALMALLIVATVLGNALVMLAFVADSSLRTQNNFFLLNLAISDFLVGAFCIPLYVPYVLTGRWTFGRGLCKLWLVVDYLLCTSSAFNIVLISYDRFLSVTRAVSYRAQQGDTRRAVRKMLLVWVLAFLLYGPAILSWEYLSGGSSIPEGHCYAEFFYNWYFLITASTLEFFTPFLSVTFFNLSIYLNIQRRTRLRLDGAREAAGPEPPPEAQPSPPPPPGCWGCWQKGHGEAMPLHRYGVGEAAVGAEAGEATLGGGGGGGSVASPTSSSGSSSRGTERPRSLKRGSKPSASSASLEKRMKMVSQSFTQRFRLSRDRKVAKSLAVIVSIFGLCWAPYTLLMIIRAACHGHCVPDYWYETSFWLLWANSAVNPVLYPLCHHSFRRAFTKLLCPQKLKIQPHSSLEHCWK

[3] = target: Histamine H2 receptor (Cavia porcellus) (UniProt P47747); assay: Agonist activity at guinea pig right atrium histamine H2 receptor assessed as intrinsic activity incubated for 30 mins in presence of cimetidine relative to histamine; type: functional, tissue-based; conditions: Right cardiac atrium, filed as agonist
Sequence of Histamine H2 receptor (Cavia porcellus) (P47747 whole entry): as the sequence (P47747 whole entry) above

Histamine H4 receptor = Histamine H4 receptor (Homo sapiens, UniProt Q9H3N8)
Histamine H1 receptor = Histamine H1 receptor (Homo sapiens, UniProt P35367); assay: Displacement of [3H]mepyramine from human histamine H1 receptor expressed in sf9 insect cell membranes co-expressing RGS4 incubated for 60 mins by microbeta scintillation counting method; set-up: species or system Membrane
Sequence of Histamine H1 receptor (P35367 whole entry): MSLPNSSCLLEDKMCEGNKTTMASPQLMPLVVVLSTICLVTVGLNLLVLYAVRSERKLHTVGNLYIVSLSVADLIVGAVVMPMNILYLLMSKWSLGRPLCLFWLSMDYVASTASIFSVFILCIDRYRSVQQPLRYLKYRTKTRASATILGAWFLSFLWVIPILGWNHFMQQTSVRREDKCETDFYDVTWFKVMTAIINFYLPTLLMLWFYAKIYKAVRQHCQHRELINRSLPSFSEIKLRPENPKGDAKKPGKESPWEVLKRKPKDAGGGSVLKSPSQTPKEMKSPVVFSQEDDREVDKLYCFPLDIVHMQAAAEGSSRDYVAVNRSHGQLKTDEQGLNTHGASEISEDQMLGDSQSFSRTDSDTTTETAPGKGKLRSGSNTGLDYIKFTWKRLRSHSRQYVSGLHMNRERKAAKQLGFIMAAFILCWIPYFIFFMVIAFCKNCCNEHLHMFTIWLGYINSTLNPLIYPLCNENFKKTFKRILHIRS

Sequence of Histamine H2 receptor (Homo sapiens, UniProt P25021) (P25021 whole entry): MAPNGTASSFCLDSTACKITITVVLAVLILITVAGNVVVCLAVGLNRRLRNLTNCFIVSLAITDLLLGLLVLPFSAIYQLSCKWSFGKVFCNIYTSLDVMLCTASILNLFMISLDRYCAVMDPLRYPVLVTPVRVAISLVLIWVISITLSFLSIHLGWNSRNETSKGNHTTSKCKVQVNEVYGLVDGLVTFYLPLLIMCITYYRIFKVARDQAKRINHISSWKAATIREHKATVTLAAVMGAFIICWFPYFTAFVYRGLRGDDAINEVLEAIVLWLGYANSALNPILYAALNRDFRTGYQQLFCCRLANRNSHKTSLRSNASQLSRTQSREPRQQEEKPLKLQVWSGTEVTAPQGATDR

| Compound | Ki (Histamine H2 receptor [1]) | Ki (Histamine H3 receptor) | Intrinsic activity [3] | Ki (Histamine H4 receptor) | Ki (Histamine H1 receptor) | EC50 (Histamine H2 receptor [2]) |
| --- | --- | --- | --- | --- | --- | --- |
| Cc1nc(N)sc1CCCN/C(N)=N/C(=O)NC(C)c1ccc(F)cc1 (stereo not drawn) | 0.0316 µM | 25.7 µM | 0.92 | 13.8 µM | 10.2 µM | 0.0234 µM |
| Cc1nc(N)sc1CCCN/C(N)=N/C(=O)NCc1ccco1 | 0.0105 µM | 74.1 µM | 0.58 | 75.9 µM | 24 µM | 0.0117 µM |
| Cc1nc(N)sc1CCCN/C(N)=N/C(=O)NC(C)c1ccc(Cl)cc1 (stereo not drawn) | 0.0468 µM | 17.8 µM | 0.93 | 8.51 µM | 4.47 µM | 0.0245 µM |
| Cc1nc(N)sc1CCCN/C(N)=N/C(=O)NC(C)c1cccs1 (stereo not drawn) | 0.0631 µM | 58.9 µM | 0.88 | 30.2 µM | 25.7 µM | 0.01 µM |
| Cc1nc(N)sc1CCCN/C(N)=N/C(=O)NC(C)c1ccc(Br)cc1 (stereo not drawn) | 0.0302 µM | 12.9 µM | 0.87 | 8.13 µM | 2.88 µM | 0.055 µM |
| Cc1ccc(C(C)NC(=O)/N=C(\N)NCCCc2sc(N)nc2C)cc1 (stereo not drawn) | 0.0309 µM | 26.3 µM | 0.85 | 11.2 µM | 5.13 µM | 0.0224 µM |
| Cc1nc(N)sc1CCCN/C(N)=N/C(=S)NC(c1ccccc1)c1ccccc1 | 0.603 µM | 43.7 µM | 0.67 | 23.4 µM | 46.8 µM | 0.0661 µM |
| Cc1nc(N)sc1CCCN/C(N)=N/C(=O)NC(C)c1ccc(OC(F)(F)F)cc1 (stereo not drawn) | 0.126 µM | 14.5 µM | 0.61 | 8.13 µM | 21.9 µM | 0.724 µM |
| N/C(=N\C(=O)NCCc1ccccc1)Nc1cccc(-c2csc(N)n2)c1 | – | – | – | 30.2 µM | – | – |
| N/C(=N\C(=O)NCc1ccccc1)Nc1cccc(-c2csc(N)n2)c1 | – | – | – | 34.7 µM | – | – |

Now from value to compound, other results behind:

| Ki (Histamine H2 receptor [1]) | Ki (Histamine H3 receptor) | Intrinsic activity [3] | Ki (Histamine H4 receptor) | Ki (Histamine H1 receptor) | Compound | EC50 (Histamine H2 receptor [2]) |
| --- | --- | --- | --- | --- | --- | --- |
| 1.15 µM | 69.2 µM | 0.44 | 44.7 µM | 63.1 µM | Cc1nc(N)sc1CCCN/C(N)=N/C(=S)NC[C@H](C)c1ccccc1 | 0.49 µM |
| 0.0871 µM | 10 µM | 0.76 | 4.9 µM | 5.25 µM | Cc1nc(N)sc1CCCN/C(N)=N/C(=O)NCC(c1ccccc1)c1ccccc1 | 0.174 µM |
| 0.427 µM | 83.2 µM | 0.66 | 32.4 µM | 52.5 µM | Cc1nc(N)sc1CCCN/C(N)=N/C(=S)NC[C@@H](C)c1ccccc1 | 0.148 µM |
| 0.339 µM | 81.3 µM | 0.65 | 55 µM | 77.6 µM | Cc1nc(N)sc1CCCN/C(N)=N/C(=S)N[C@@H](C)c1ccccc1 | 0.224 µM |
| 0.1 µM | 17 µM | 0.99 | 12 µM | 8.71 µM | Cc1nc(N)sc1CCCN/C(N)=N/C(=O)NC[C@H](C)c1ccccc1 | 0.0257 µM |
| – | 9.12 µM | – | 6.31 µM | 15.8 µM | Cc1nc(N)sc1CCCN/C(N)=N/C(=O)NC(c1ccccc1)c1ccccc1 | 0.0398 µM |
| 0.102 µM | 26.9 µM | 0.98 | 13.5 µM | 9.55 µM | Cc1nc(N)sc1CCCN/C(N)=N/C(=O)NC[C@@H](C)c1ccccc1 | 0.0129 µM |
| 0.0631 µM | 21.9 µM | 0.93 | 11.2 µM | 12.6 µM | CCC(NC(=O)/N=C(\N)NCCCc1sc(N)nc1C)c1ccccc1 (stereo not drawn) | 0.0107 µM |
| 0.0288 µM | 30.9 µM | 0.93 | 12.9 µM | 17 µM | Cc1nc(N)sc1CCCN/C(N)=N/C(=O)NC(C)c1ccccc1F (stereo not drawn) | 0.0123 µM |
| 0.229 µM | 31.6 µM | 0.85 | 17.4 µM | 53.7 µM | Cc1nc(N)sc1CCCN/C(N)=N/C(=O)NC(c1ccccc1)C(F)(F)F (stereo not drawn) | 0.0479 µM |
